# Values of other authors in article PMC5748270 (Organic & biomolecular chemistry, 2017).
# Columns and labels:
# B16 melanoma = settings: comparably to mitomycin C
# Plasmodium falciparum K1 = settings: selectivity on par with artesunate
# HSV-1 = settings: read-out: HSV-1 antiviral EC50
compound,measurement,setting,value
"O=c1c(O)cccc(O)c1O [3,7-dHT, 3,7-Dihydroxytropolones]",cell-based HIV antiviral activity,HIV,promising cell-based HIV antiviral activity
same,Activity against B16 melanoma cells relative to αHTs,B16 melanoma cells,an order of magnitude greater than αHTs
same,Lifespan of mice bearing B16 melanoma,B16 melanoma,increases the lifespan
"Nc1nc2c(ncn2COCCO)c(=O)[nH]1 [ACV, acyclovir]",Potency against HSV-2 relative to HSV-1,HSV-2; obtained previously under identical conditions,nearly an order of magnitude less potent
O=C(O)c1cc(O)c(O)c(=O)c(O)c1 [puberulic acid],Antimalarial activity,Plasmodium falciparum K1,potent antimalarial activity
manicol,EC50,HSV-1,350 nM
same,EC50,HSV-2; read-out: HSV-2 antiviral EC50,580 nM
